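Cultured in 96-well plates, cells were exposed to test compound for 48 hours across five concentrations. GI50: concentration for 50% inhibition of growth. The concentration for full growth arrest is given as TGI.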
Legend:
Test in all cases: NCI-60 cell line screen, 48 h; in the data active = GI50 below about 0.43 µM; inactive = the rest
OVCAR-4 ovarian = test system: OVCAR-4 ovarian
SF-268 CNS = test system: SF-268 CNS
HOP-92 NSCLC = test system: HOP-92 NSCLC
DU-145 prostate = test system: DU-145 prostate
T-47D breast = test system: T-47D breast
SK-OV-3 ovarian = test system: SK-OV-3 ovarian
UACC-257 melanoma = test system: UACC-257 melanoma
MOLT-4 leukemia = test system: MOLT-4 leukemia
HS 578T breast = test system: HS 578T breast
CCRF-CEM leukemia = test system: CCRF-CEM leukemia
M14 melanoma = test system: M14 melanoma
U251 CNS = test system: U251 CNS
RXF 393 renal = test system: RXF 393 renal
ACHN renal = test system: ACHN renal
OVCAR-3 ovarian = test system: OVCAR-3 ovarian
NCI-H522 lung = test system: NCI-H522 lung
OVCAR-5 ovarian = test system: OVCAR-5 ovarian
NCI-H460 lung = test system: NCI-H460 lung
CAKI-1 renal = test system: CAKI-1 renal
SF-539 CNS = test system: SF-539 CNS
NCI-H226 lung = test system: NCI-H226 lung
KM12 colon = test system: KM12 colon
SK-MEL-5 melanoma = test system: SK-MEL-5 melanoma
SK-MEL-2 melanoma = test system: SK-MEL-2 melanoma
SR leukemia = test system: SR leukemia
HCT-15 colon = test system: HCT-15 colon
LOX IMVI melanoma = test system: LOX IMVI melanoma
RPMI-8226 leukemia = test system: RPMI-8226 leukemia
SN12C renal = test system: SN12C renal
EKVX NSCLC = test system: EKVX NSCLC
UACC-62 melanoma = test system: UACC-62 melanoma
HCC-2998 colon = test system: HCC-2998 colon
SF-295 CNS = test system: SF-295 CNS
HCT-116 colon = test system: HCT-116 colon
SNB-75 CNS = test system: SNB-75 CNS
MALME-3M melanoma = test system: MALME-3M melanoma
A549 NSCLC = test system: A549 NSCLC
HOP-62 NSCLC = test system: HOP-62 NSCLC
HL-60(TB) leukemia = test system: HL-60(TB) leukemia
OVCAR-8 ovarian = test system: OVCAR-8 ovarian
K-562 leukemia = test system: K-562 leukemia
NCI-H23 lung = test system: NCI-H23 lung
UO-31 renal = test system: UO-31 renal
IGROV1 ovarian = test system: IGROV1 ovarian
HT29 colon = test system: HT29 colon
MDA-MB-435 = test system: MDA-MB-435
TK-10 renal = test system: TK-10 renal
MCF7 breast = test system: MCF7 breast
BT-549 breast = test system: BT-549 breast
SK-MEL-28 melanoma = test system: SK-MEL-28 melanoma
COLO 205 colon = test system: COLO 205 colon
A498 renal = test system: A498 renal
MDA-MB-231 breast = test system: MDA-MB-231 breast
SNB-19 CNS = test system: SNB-19 CNS
PC-3 prostate = test system: PC-3 prostate
786-0 renal = test system: 786-0 renal
NCI/ADR-RES ovarian = test system: NCI/ADR-RES ovarian
SW-620 colon = test system: SW-620 colon

CC(C)NCCCCCNc1cc(O)cc2cccnc12
9.37 µM: TGI (OVCAR-3 ovarian)
> 100 µM: TGI (OVCAR-4 ovarian) | TGI (SF-268 CNS) | TGI (HOP-92 NSCLC) | TGI (DU-145 prostate) | TGI (T-47D breast) | TGI (SK-OV-3 ovarian) | TGI (MOLT-4 leukemia) | TGI (HS 578T breast) | TGI (CCRF-CEM leukemia) | TGI (M14 melanoma) | TGI (U251 CNS) | TGI (RXF 393 renal) | TGI (ACHN renal) | TGI (NCI-H522 lung) | TGI (OVCAR-5 ovarian) | TGI (NCI-H460 lung) | TGI (CAKI-1 renal) | TGI (SF-539 CNS) | TGI (NCI-H226 lung) | TGI (KM12 colon) | TGI (SK-MEL-5 melanoma) | TGI (SK-MEL-2 melanoma) | TGI (SR leukemia) | TGI (HCT-15 colon) | TGI (LOX IMVI melanoma) | TGI (RPMI-8226 leukemia) | TGI (SN12C renal) | TGI (EKVX NSCLC) | TGI (UACC-62 melanoma) | TGI (HCC-2998 colon) | TGI (SF-295 CNS) | TGI (HCT-116 colon) | TGI (SNB-75 CNS) | TGI (MALME-3M melanoma) | TGI (A549 NSCLC) | TGI (HOP-62 NSCLC) | TGI (OVCAR-8 ovarian) | TGI (K-562 leukemia) | TGI (NCI-H23 lung) | TGI (UO-31 renal) | TGI (IGROV1 ovarian) | TGI (HT29 colon) | TGI (MDA-MB-435) | TGI (TK-10 renal) | TGI (MCF7 breast) | TGI (BT-549 breast) | TGI (SK-MEL-28 melanoma) | TGI (COLO 205 colon) | TGI (A498 renal) | TGI (MDA-MB-231 breast) | TGI (SNB-19 CNS) | TGI (PC-3 prostate) | TGI (786-0 renal) | TGI (NCI/ADR-RES ovarian) | TGI (SW-620 colon)
inactive: GI50 (OVCAR-4 ovarian) 4.14 µM | GI50 (SF-268 CNS) > 100 µM | GI50 (HOP-92 NSCLC) 6.89 µM | GI50 (DU-145 prostate) > 100 µM | GI50 (T-47D breast) 4.56 µM | GI50 (SK-OV-3 ovarian) > 100 µM | GI50 (UACC-257 melanoma) 17.7 µM | GI50 (MOLT-4 leukemia) > 77.8 µM | GI50 (HS 578T breast) > 42.5 µM | GI50 (CCRF-CEM leukemia) > 51.2 µM | GI50 (M14 melanoma) > 100 µM | GI50 (U251 CNS) > 100 µM | GI50 (RXF 393 renal) > 100 µM | GI50 (ACHN renal) > 100 µM | GI50 (OVCAR-3 ovarian) 2.43 µM | GI50 (NCI-H522 lung) 3.94 µM | GI50 (OVCAR-5 ovarian) > 100 µM | GI50 (NCI-H460 lung) > 100 µM | GI50 (CAKI-1 renal) > 100 µM | GI50 (SF-539 CNS) > 100 µM | GI50 (NCI-H226 lung) > 100 µM | GI50 (KM12 colon) > 100 µM | GI50 (SK-MEL-5 melanoma) 98.1 µM | GI50 (SK-MEL-2 melanoma) > 100 µM | GI50 (SR leukemia) > 100 µM | GI50 (HCT-15 colon) > 100 µM | GI50 (LOX IMVI melanoma) > 100 µM | GI50 (RPMI-8226 leukemia) > 23.1 µM | GI50 (SN12C renal) > 100 µM | GI50 (EKVX NSCLC) 22.8 µM | GI50 (UACC-62 melanoma) > 100 µM | GI50 (HCC-2998 colon) > 44.2 µM | GI50 (SF-295 CNS) > 100 µM | GI50 (HCT-116 colon) 67.9 µM | GI50 (SNB-75 CNS) > 58.2 µM | GI50 (A549 NSCLC) > 100 µM | GI50 (HOP-62 NSCLC) > 100 µM | GI50 (HL-60(TB) leukemia) 0.751 µM | GI50 (OVCAR-8 ovarian) > 100 µM | GI50 (K-562 leukemia) > 100 µM | GI50 (NCI-H23 lung) > 24.6 µM | GI50 (UO-31 renal) 85.2 µM | GI50 (IGROV1 ovarian) 4.81 µM | GI50 (HT29 colon) 31.6 µM | GI50 (MDA-MB-435) > 100 µM | GI50 (TK-10 renal) > 100 µM | GI50 (MCF7 breast) 18.7 µM | GI50 (BT-549 breast) > 37.7 µM | GI50 (SK-MEL-28 melanoma) > 100 µM | GI50 (COLO 205 colon) 1.88 µM | GI50 (MDA-MB-231 breast) 4.78 µM | GI50 (SNB-19 CNS) > 100 µM | GI50 (PC-3 prostate) > 100 µM | GI50 (786-0 renal) > 100 µM | GI50 (NCI/ADR-RES ovarian) > 100 µM | GI50 (SW-620 colon) > 100 µM
4.36 µM: TGI (HL-60(TB) leukemia)
> 75.1 µM: TGI (UACC-257 melanoma)

— PubChem BioAssay (NCI)
